Laboratory results as given in US8426447B2, “Spiro-tricyclic ring compounds as beta-secretase modulators and methods of use” (Amgen Inc., priority 2008, dated 2013).

Tests used:
BACE1 [1] = biological target: T1, BACE1 (Homo sapiens, UniProt P56817); experiment: In Vitro Enzymatic BACE FRET (Fluorescence Resonance Energy Transfer) Assay; type: biochemical
How it was run: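 Run in 0.05 M acetate pH 4.2 with 10% DMSO final and 100 uM genapol detergent below its CMC. Reaction was started with 50 nM FRET peptide substrate (fluorophore and quencher flanking the BACE cleavage site), incubated one hour, stopped with Tris to neutral pH, and fluorescence read.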

BACE1 [2] = biological target: T1, BACE1; experiment: In Vitro BACE Cell-based Assay (HEK cell assay): Aβ40 in conditioned medium of cells stably expressing Amyloid Precursor Protein, sandwich ELISA
How it was run: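 Read-out is time-resolved fluorescence of Aβ40 in supernatant, captured by pAb40 and detected with biotinylated 6E10 plus Streptavidin-Europium. Cells stably expressing APP received compounds for 24 h over 10 concentrations starting at 100 μM or 10 μM, final DMSO 0.1%.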

[3] = Table III, IC50's in uM ranges, read-out: BACE1 FRET assay
[4] = Table III, IC50's in uM ranges, read-out: HEK cell assay
[5] = Table IV, class symbols, read-out: BACE1 FRET assay
[6] = Table IV, class symbols, read-out: HEK cell assay
[7] = HEK cells, read-out: HEK cell assay
[8] = in vitro BACE FRET enzyme assay, IC50 class symbols, read-out: BACE1 FRET assay
[9] = HEK cell-based assay, Aβ40 in conditioned medium, IC50 class symbols, read-out: HEK cell assay

T1 sequence (P56817 46-501, species assumed): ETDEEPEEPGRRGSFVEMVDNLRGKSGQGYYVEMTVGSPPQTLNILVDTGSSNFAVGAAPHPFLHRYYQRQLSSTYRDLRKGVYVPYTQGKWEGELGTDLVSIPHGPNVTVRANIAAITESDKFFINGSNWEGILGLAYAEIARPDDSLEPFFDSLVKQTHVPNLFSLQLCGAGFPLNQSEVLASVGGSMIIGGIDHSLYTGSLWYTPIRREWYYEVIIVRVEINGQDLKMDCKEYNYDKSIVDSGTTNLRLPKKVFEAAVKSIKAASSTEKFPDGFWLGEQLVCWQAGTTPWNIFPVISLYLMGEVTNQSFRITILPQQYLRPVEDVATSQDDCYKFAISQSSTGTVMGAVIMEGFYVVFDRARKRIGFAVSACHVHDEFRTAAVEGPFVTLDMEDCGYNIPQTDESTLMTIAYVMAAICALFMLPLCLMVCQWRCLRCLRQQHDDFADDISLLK

SMILES	IC50 (BACE1 [1]; [5]) [µM]	IC50 (BACE1 [2]; [6]) [µM]	IC50 (BACE1 [1]; read-out: BACE1 FRET assay) [µM]	other results
CC(C)(O)CCc1ccc2c(c1)[C@]1(COC(N)=N1)c1cc(-c3cccnc3)ccc1O2 [compound 193]	–	–	–	IC50 (BACE1 [1]; [3]): < 0.1 µM; IC50 (BACE1 [2]; [4]): < 0.1 µM
CC(C)(C)COc1ccc2c(c1)[C@]1(COC(N)=N1)c1cc(C(=O)NC3CCCC3)ccc1O2 [compound 874]	0.1 to 1	1 to 5	–	–
CC(C)(C)CCc1ccc2c(c1)[C@]1(COC(N)=N1)c1cc(-c3cccnc3)cnc1O2 [182b]	–	–	–	IC50 (BACE1 [1]; [3]): < 0.1 µM; IC50 (BACE1 [2]; [4]): 0.1 to 1 µM
CC(C)(C)COc1ccc2c(c1)[C@]1(COC(N)=N1)c1cc(-c3csc(N4CCCC4)n3)ccc1O2 [compound 215]	–	–	–	IC50 (BACE1 [1]; [3]): 1 to 5 µM; IC50 (BACE1 [2]; [4]): > 5 µM
CC(C)(C)C#Cc1ccc2c(c1)[C@]1(COC(N)=N1)c1cc(-c3cccnc3)cnc1O2 [compound 896]	0.1 to 1	1 to 5	–	–
CC1(C)CN(c2cc(F)c3c(c2)[C@@]2(COC(N)=N2)c2cc(-c4cncnc4)ccc2O3)CCO1 [compound 506]	–	–	0.1 to 1	IC50 (BACE1 [2]; [7]): 1 to 5 µM
CC(C)(O)COc1ccc2c(c1C#N)[C@]1(COC(N)=N1)c1cc(-c3cccnc3)ccc1O2 [compound 929]	–	–	< 0.1	IC50 (BACE1 [2]; read-out: HEK cell assay): 0.1 to 1 µM
CC(C)(C)COc1ccc2c(c1)[C@@]1(COC(N)=N1)c1cc(-c3cnc4ccccn34)ccc1O2 [compound 192]	–	–	–	IC50 (BACE1 [1]; [3]): 1 to 5 µM; IC50 (BACE1 [2]; [4]): > 5 µM
CC1(C)C=C(c2cnc3c(c2)[C@]2(COC(N)=N2)c2cc(-c4cccnc4)ccc2O3)CCO1 [compound 481]	–	–	< 0.1	IC50 (BACE1 [2]; [7]): < 0.1 µM
COCC[C@@H]1CN(c2ccc3c(c2)[C@]2(COC(N)=N2)c2cc(-c4cccnc4)ccc2O3)CCO1 [compound 362]	–	–	–	IC50 (BACE1 [1]; [8]): 0.1 to 1 µM; IC50 (BACE1 [2]; [9]): 0.1 to 1 µM
CC(C)(O)COc1ccc2c(c1)[C@]1(COC(N)=N1)c1cc(C#CC3CC3)ccc1O2 [compound 937]	–	–	< 0.1	IC50 (BACE1 [2]; read-out: HEK cell assay): 0.1 to 1 µM
N#Cc1cccc(-c2ccc3c(c2)[C@]2(COC(N)=N2)c2cccnc2O3)c1 [compound 610]	0.1 to 1	1 to 5	–	–
CC1(C#Cc2cnc3c(c2)[C@]2(COC(N)=N2)c2cc(-c4cc(F)ccc4F)ccc2O3)COC1 [compound 519]	–	–	< 0.1	IC50 (BACE1 [2]; [7]): < 0.1 µM
NC1=N[C@@]2(CO1)c1cc(Oc3ccccn3)ccc1Oc1ncc(Br)cc12 [compound 936]	–	–	> 5	IC50 (BACE1 [2]; read-out: HEK cell assay): > 5 µM
COc1ccc2c(c1)[C@]1(COC(N)=N1)c1cc(NC(=O)c3ccccc3)ccc1O2 [compound 616]	1 to 5	1 to 5	–	–
CC(C)(C)COc1ccc2c(c1)[C@]1(COC(N)=N1)c1cc(C3CCOCC3)ccc1O2 [compound 747]	–	–	0.1 to 1	IC50 (BACE1 [2]; read-out: HEK cell assay): 1 to 5 µM
COc1ccc2c(c1)[C@@]1(COC(N)=N1)c1cc(-c3cncnc3)cc(F)c1O2 [152b]	–	–	–	IC50 (BACE1 [1]; [3]): 1 to 5 µM; IC50 (BACE1 [2]; [4]): 1 to 5 µM
Cc1ccc(-c2cnc3c(c2)[C@]2(COC(N)=N2)c2cc(-c4cncnc4)ccc2O3)cc1 [compound 578]	< 0.1	< 0.1	–	–
CC(C)(C)OC(=O)n1c(-c2ccc3c(c2)[C@@]2(COC(N)=N2)c2ccccc2O3)cc2ccccc21 [compound 568]	> 5	> 5	–	–
NC1=N[C@@]2(CO1)c1ccccc1Oc1ccc(-c3cnc4ccccc4c3)cc12 [compound 628]	> 5	> 5	–	–
CC(C)(C)CCOc1nccc2c1[C@]1(COC(N)=N1)c1cc(-c3cncnc3)ccc1O2 [compound 984]	–	–	0.1 to 1	IC50 (BACE1 [2]; read-out: HEK cell assay): 0.1 to 1 µM
NC1=N[C@@]2(CO1)c1cc(Br)ccc1Oc1ccc(C#CC3(O)CCC3)cc12 [compound 957]	–	–	1 to 5	IC50 (BACE1 [2]; read-out: HEK cell assay): > 5 µM
NC1=N[C@@]2(CO1)c1cc(-c3cccnc3)ccc1Oc1ccc(N3CCOC4(CC4)C3)cc12 [compound 419]	–	–	< 0.1	IC50 (BACE1 [2]; [7]): < 0.1 µM
NC1=N[C@@]2(CO1)c1cc(-c3cccnc3)ccc1Oc1ccc(N3C[C@@H]4C[C@H]3CO4)cc12 [compound 564]	< 0.1	< 0.1	–	–
CC(C)(C)COc1ccc2c(n1)[C@@]1(COC(N)=N1)c1cc(-c3cncnc3)ccc1O2 [compound 732]	–	–	1 to 5	IC50 (BACE1 [2]; read-out: HEK cell assay): 1 to 5 µM
NC1=NC2(CO1)c1cnc(Cl)cc1Oc1ccc(-c3cncnc3)cc12 (centres unmarked) [compound 852]	1 to 5	> 5	–	–
CC1(C)C=C(c2cc3c(cn2)Oc2ccc(-c4cccnc4F)cc2[C@@]32COC(N)=N2)CCO1 [compound 435]	–	–	–	IC50 (BACE1 [1]; BACE1 FRET assay (uM)): < 0.1 µM; IC50 (BACE1 [2]; HEK cell assay (uM), HEK cells): < 0.1 µM
CC(C)(C)C#Cc1ccc2c(c1)C1(COC(N)=N1)c1cc(C#CC(C)(C)C)ccc1O2 [compound 930]	–	–	0.1 to 1	IC50 (BACE1 [2]; read-out: HEK cell assay): 1 to 5 µM

SMILES	IC50 (BACE1 [1]; [5]) [µM]	IC50 (BACE1 [2]; [6]) [µM]	IC50 (BACE1 [1]; read-out: BACE1 FRET assay) [µM]	other results
NC1=N[C@@]2(CO1)c1cc(-c3cccnc3F)ccc1Oc1cnc(Cl)cc12 [compound 551]	0.1 to 1	0.1 to 1	–	–
Cc1nc(C)c(-c2ccc3c(c2)[C@@]2(COC(N)=N2)c2cc(OCC(C)(C)C)ccc2O3)s1 [compound 837]	0.1 to 1	> 5	–	–
CC(C)(C)COc1ccc2c(c1)[C@@]1(COC(N)=N1)c1cc(-c3cncc(F)c3)cnc1O2 [compound 753]	–	–	< 0.1	IC50 (BACE1 [2]; read-out: HEK cell assay): < 0.1 µM
COC(=O)CN1CCN(c2cc3c(cn2)Oc2ccc(-c4cccnc4)cc2[C@@]32COC(N)=N2)CC1 [compound 438]	–	–	< 0.1	IC50 (BACE1 [2]; [7]): < 0.1 µM
Cc1cc(-c2ccc3c(c2)[C@]2(COC(N)=N2)c2cc(-c4cccnc4)ccc2O3)cc(=O)o1 [compound 390]	–	–	–	IC50 (BACE1 [1]; [8]): < 0.1 µM; IC50 (BACE1 [2]; [9]): < 0.1 µM
COc1ccc2c(c1)[C@]1(COC(N)=N1)c1cc(C3=CCOCC3)cc(F)c1O2 [compound 363]	–	–	–	IC50 (BACE1 [1]; [8]): > 5 µM; IC50 (BACE1 [2]; [9]): > 5 µM
CC(C)CCCOc1nccc2c1[C@]1(COC(N)=N1)c1cc(-c3cccnc3)ccc1O2 [compound 842]	0.1 to 1	0.1 to 1	–	–
NC1=N[C@@]2(CO1)c1cc(-c3cccnc3)ccc1Oc1ncc(C3=CCOCC3)cc12 [compound 664]	–	–	< 0.1	IC50 (BACE1 [2]; read-out: HEK cell assay): < 0.1 µM
CC(C)(C)C#Cc1cnc2c(c1)[C@]1(COC(N)=N1)c1cc(-c3ccc(F)nc3)ccc1O2 [compound 766]	–	–	< 0.1	IC50 (BACE1 [2]; read-out: HEK cell assay): < 0.1 µM
CC(C)(C)COc1cnc2c(c1)[C@]1(COC(N)=N1)c1cc(Br)ccc1O2 [compound 388]	–	–	–	IC50 (BACE1 [1]; [8]): 0.1 to 1 µM; IC50 (BACE1 [2]; [9]): 1 to 5 µM
NC1=N[C@@]2(CO1)c1cc(-c3cccnc3)ccc1Oc1ncc(N3CCOCC3)cc12 [compound 539]	< 0.1	< 0.1	–	–
COc1ccc2c(c1)[C@@]1(N=C(N)O[C@@H]1C)c1cc(-c3cncnc3)ccc1O2 (single isomer, unassigned) [Example 125d]	–	–	–	IC50 (BACE1 [1]; [3]): 0.1 to 1 µM; IC50 (BACE1 [2]; [4]): 0.1 to 1 µM
Cc1ccncc1-c1ccc2c(c1)[C@@]1(COC(N)=N1)c1cc(OCC(C)(C)C)ccc1O2 [Example 86, (4S)-2′-(2,2-dimethylpropoxy)-7′-(4-methyl-3-pyridinyl)spiro[1,3-oxazole-4,9′-xanthen]-2-amine]	–	–	–	IC50 (BACE1 [1]; Table II, read-out: BACE1 FRET assay): < 0.1 µM; IC50 (BACE1 [2]; Table II, Aβ40, 24 h incubation, read-out: HEK cell assay): 0.1 to 1 µM
NC1=N[C@]2(CO1)c1cc(C3=CCOCC3)ccc1Oc1cc(F)c(-c3cccnc3)cc12 [compound 492]	–	–	< 0.1	IC50 (BACE1 [2]; [7]): < 0.1 µM
CCOc1ccc(-c2cnc3c(c2)[C@]2(COC(N)=N2)c2cc(OCC(C)(C)C)ccc2O3)cn1 [compound 804]	< 0.1	< 0.1	–	–
CC1(COc2ccc3c(c2)[C@@]2(COC(N)=N2)c2cc(-c4ccccc4)cnc2O3)COC1 [compound 966, (5S)-7-((3-methyl-3-oxetanyl)methoxy)-3-phenylspiro[chromeno[2,3-b]pyridine-5,4′-[1,3]oxazol]-2′-amine]	–	–	< 0.1	IC50 (BACE1 [2]; read-out: HEK cell assay): < 0.1 µM
NC1=N[C@]2(CO1)c1cc(C3=CCSCC3)ccc1Oc1ccc(-c3cncnc3)cc12 [compound 831]	< 0.1	< 0.1	–	–
COc1ncc(-c2ccc3c(c2)[C@]2(COC(N)=N2)c2cc(OCC(C)(C)C)ccc2O3)cn1 [compound 188]	–	–	–	IC50 (BACE1 [1]; [3]): 0.1 to 1 µM; IC50 (BACE1 [2]; [4]): 1 to 5 µM
CC(C)(C)COc1ccc2c(c1)[C@]1(COC(N)=N1)c1cc(C(=O)O)ccc1O2 [compound 861]	1 to 5	> 5	–	–
COc1ccc2c(c1)[C@]1(COC(N)=N1)c1cc(-c3cccc4cccnc34)ccc1O2 [compound 590]	1 to 5	1 to 5	–	–
CCOC(C)(C)COc1ccc2c(c1)[C@]1(COC(N)=N1)c1cc(-c3cncnc3)ccc1O2 [compound 170]	–	–	–	IC50 (BACE1 [1]; [3]): < 0.1 µM; IC50 (BACE1 [2]; [4]): < 0.1 µM
CC(C)(C)CCc1cc2c(cn1)Oc1ccc(-c3cncnc3)cc1[C@@]21COC(N)=N1 [compound 455]	–	–	< 0.1	IC50 (BACE1 [2]; [7]): < 0.1 µM
CCCOc1cc2c(cc1F)Oc1ccc(-c3cccnc3)cc1[C@@]21COC(N)=N1 [compound 938]	–	–	< 0.1	IC50 (BACE1 [2]; read-out: HEK cell assay): < 0.1 µM
Cc1cncc(-c2ccc3c(c2)[C@@]2(COC(N)=N2)c2cc(C4=CCOCC4)ncc2O3)c1 [compound 326]	–	–	–	IC50 (BACE1 [1]; [8]): < 0.1 µM; IC50 (BACE1 [2]; [9]): < 0.1 µM
NC1=N[C@@]2(CO1)c1cc(-c3cccnc3)ccc1Oc1cnc(C3CCCCC3)cc12 [compound 791]	–	–	< 0.1	IC50 (BACE1 [2]; read-out: HEK cell assay): 0.1 to 1 µM
Cc1ccc(-n2ccc3c(c2=O)[C@]2(COC(N)=N2)c2cc(-c4cccnc4)ccc2O3)cc1 [compound 504]	–	–	0.1 to 1	IC50 (BACE1 [2]; [7]): 0.1 to 1 µM
CC1(C#Cc2cnc3c(c2)[C@]2(COC(N)=N2)c2cc(-c4cc(Cl)ccc4F)ccc2O3)COC1 [compound 521, (5S)-7-(5-chloro-2-fluorophenyl)-3-((3-methyl-3-oxetanyl)ethynyl)spiro[chromeno[2,3-b]pyridine-5,4′-[1,3]oxazol]-2′-amine]	–	–	< 0.1	IC50 (BACE1 [2]; [7]): < 0.1 µM
